Test results from patent US8883745B2, “C—glycolipids with enhanced Th-1 profile” (New York University, priority 2006, dated 2014).

system: IFN-γ; assay: IFN-γ levels in sera upon i.v. glycolipid administration to BALB/c mice (ELISA); format: in vivo; parameters: IFN-γ levels, test 1 / IFN-γ levels, test 2 / IFN-γ levels, average / IFN-γ levels, Total: unit not given here; details: BALB/c, ratio calculated from Tables 1-6
Protocol: (§1) Five- to six-week-old female C57BL/6 mice and BALB/c mice were purchased from Taconic. Each glycolipid was stored at 1 mg/ml in 100% DMSO. Mice were injected intravenously with 1 μg of each glyocolipid diluted in 200 μL sterile phosphate buffered saline (PBS). At indicated time points, sera were collected from each animal, and concentrations of IFN-γ, IL-4, and IL-12 in the sera were evaluated by enzyme-linked immunosorbent assay (ELISA). Serum concentrations of IFN-γ, IL-4, and IL-12 were evaluated using an ELISA kit (eBioscience, San Diego, Calif.). Briefly, 96 well flat-bottom ELISA plates (NUNC) were coated with capture antibody according to the manufacture's recommendation and incubated overnight at 4° C. The plates were washed with PBS+0.05% Tween 20 (PBS-T), then incubated with manufacturer provided blocking solution for 1 hr at room temperature to block non-specific binding sites. After washing with PBS-T, sera diluted 1:10 was added to the wells and incubated for 2 hrs at room temperature. Plates were then incubated at room temperature for 1 hr with biotintylated detection antibody, washed, incubated with avidin conjugated to horse radish peroxidase (HRP) for 30 min at room temperature, washed, and finally incubated with tetramethylbenzidine substrate solution in the dark for 10 minutes at room temperature. The antibodies, avidin-HRP, and substrate solution were all diluted according to the manufacture's recommendation. Reactions were stopped with 2.0N sulfuric acid and the cytokine concentration in each well was determined by comparing the absorbance at 450 nm in each well to known standards. The levels of Th1- and Th2-type cytokines were determined in two different genetic backgrounds, i.e., in C57BL/6 mice and BALB/c mice. The following compounds were administered: A=compound (A-1 trans-conformer), B=compound (A-2), C=compound (A-3), D=compound (A-4), E=compound (A-5), Z=control (PBS alone), CRONY=α-C-GalCer, KRN=α-GalCer, GCK109 (A-1 trans-conformer), GCK151 (A-1 cis-conformer), GCK152 (A-7). The levels of cytokines were measured at 0, 2, 6, 12, 24, 48, and 72 hours after the compound administration. The levels of Th1-type cytokines IFN-γ and IL-12 are summarized in FIGS. 2A-C and 3A-C, respectively. Table 7 provides IFN-γ/IL-4 and IL-12/IL-4 ratios for various compounds, which can be used as indicators of their ability to selectively stimulate Th1-type immune responses.

SMILES	IFN-γ/IL-4 (BALB/c)
CCCCCCCCCCCCCCCCCCCCCCCCCC(=O)N[C@@H](CC[C@H]1O[C@H](CO)[C@H](O)[C@H](O)[C@H]1O)[C@H](O)[C@H](O)CCCCCCCCCCCCCC [CRONY, reference compound]	34

same assay, conditions: BALB/c, serum, hour 0

SMILES	IFN-γ levels, average	IFN-γ levels, test 1	IFN-γ levels, test 2
CCCCCCCCCCCCCCCCCCCCCCCCCC(=O)N[C@@H](CC[C@H]1O[C@H](CO)[C@H](O)[C@H](O)[C@H]1O)[C@H](O)[C@H](O)CCCCCCCCCCCCCC [CRONY, reference compound]	27	27	27

same assay, conditions: BALB/c, serum, hour 2

SMILES	IFN-γ levels, average	IFN-γ levels, test 1	IFN-γ levels, test 2
CCCCCCCCCCCCCCCCCCCCCCCCCC(=O)N[C@@H](CC[C@H]1O[C@H](CO)[C@H](O)[C@H](O)[C@H]1O)[C@H](O)[C@H](O)CCCCCCCCCCCCCC [CRONY, reference compound]	150	122	178

same assay, conditions: BALB/c, serum, hour 6

SMILES	IFN-γ levels, average	IFN-γ levels, test 1	IFN-γ levels, test 2
CCCCCCCCCCCCCCCCCCCCCCCCCC(=O)N[C@@H](CC[C@H]1O[C@H](CO)[C@H](O)[C@H](O)[C@H]1O)[C@H](O)[C@H](O)CCCCCCCCCCCCCC [CRONY, reference compound]	3075.5	3114	3037

same assay, conditions: BALB/c, serum, hour 12

SMILES	IFN-γ levels, average	IFN-γ levels, test 1	IFN-γ levels, test 2
CCCCCCCCCCCCCCCCCCCCCCCCCC(=O)N[C@@H](CC[C@H]1O[C@H](CO)[C@H](O)[C@H](O)[C@H]1O)[C@H](O)[C@H](O)CCCCCCCCCCCCCC [CRONY, reference compound]	5611	6314	4908

same assay, conditions: BALB/c, serum, hour 24

SMILES	IFN-γ levels, average	IFN-γ levels, test 1	IFN-γ levels, test 2
CCCCCCCCCCCCCCCCCCCCCCCCCC(=O)N[C@@H](CC[C@H]1O[C@H](CO)[C@H](O)[C@H](O)[C@H]1O)[C@H](O)[C@H](O)CCCCCCCCCCCCCC [CRONY, reference compound]	10680	11900	9460

same assay, conditions: BALB/c, serum, hour 48

SMILES	IFN-γ levels, average	IFN-γ levels, test 1	IFN-γ levels, test 2
CCCCCCCCCCCCCCCCCCCCCCCCCC(=O)N[C@@H](CC[C@H]1O[C@H](CO)[C@H](O)[C@H](O)[C@H]1O)[C@H](O)[C@H](O)CCCCCCCCCCCCCC [CRONY, reference compound]	334	320	348

same assay, conditions: BALB/c, serum, hour 72

SMILES	IFN-γ levels, average	IFN-γ levels, test 1	IFN-γ levels, test 2
CCCCCCCCCCCCCCCCCCCCCCCCCC(=O)N[C@@H](CC[C@H]1O[C@H](CO)[C@H](O)[C@H](O)[C@H]1O)[C@H](O)[C@H](O)CCCCCCCCCCCCCC [CRONY, reference compound]	59.5	50	69

same assay, conditions: BALB/c, serum, total over hours 0-72

SMILES	IFN-γ levels, Total
CCCCCCCCCCCCCCCCCCCCCCCCCC(=O)N[C@@H](CC[C@H]1O[C@H](CO)[C@H](O)[C@H](O)[C@H]1O)[C@H](O)[C@H](O)CCCCCCCCCCCCCC [CRONY, reference compound]	19938

system: IL-12; assay: IL-12 levels in sera upon i.v. glycolipid administration to BALB/c mice (ELISA); format: in vivo; parameters: IL-12 levels, test 1 / IL-12 levels, test 2 / IL-12 levels, average / IL-12 levels, Total: unit not given here; details: ratio calculated from Tables 1-6
Protocol: as §1

SMILES	IL-12/IL-4 (BALB/c)
CCCCCCCCCCCCCCCCCCCCCCCCCC(=O)N[C@@H](CC[C@H]1O[C@H](CO)[C@H](O)[C@H](O)[C@H]1O)[C@H](O)[C@H](O)CCCCCCCCCCCCCC [CRONY, reference compound]	7

same assay, conditions: serum, hour 0

SMILES	IL-12 levels, average	IL-12 levels, test 1	IL-12 levels, test 2
CCCCCCCCCCCCCCCCCCCCCCCCCC(=O)N[C@@H](CC[C@H]1O[C@H](CO)[C@H](O)[C@H](O)[C@H]1O)[C@H](O)[C@H](O)CCCCCCCCCCCCCC [CRONY, reference compound]	5	5	5

same assay, conditions: serum, hour 2

SMILES	IL-12 levels, average	IL-12 levels, test 1	IL-12 levels, test 2
CCCCCCCCCCCCCCCCCCCCCCCCCC(=O)N[C@@H](CC[C@H]1O[C@H](CO)[C@H](O)[C@H](O)[C@H]1O)[C@H](O)[C@H](O)CCCCCCCCCCCCCC [CRONY, reference compound]	66	7	125

same assay, conditions: serum, hour 6

SMILES	IL-12 levels, average	IL-12 levels, test 1	IL-12 levels, test 2
CCCCCCCCCCCCCCCCCCCCCCCCCC(=O)N[C@@H](CC[C@H]1O[C@H](CO)[C@H](O)[C@H](O)[C@H]1O)[C@H](O)[C@H](O)CCCCCCCCCCCCCC [CRONY, reference compound]	1525	1556	1494

same assay, conditions: serum, hour 12

SMILES	IL-12 levels, average	IL-12 levels, test 1	IL-12 levels, test 2
CCCCCCCCCCCCCCCCCCCCCCCCCC(=O)N[C@@H](CC[C@H]1O[C@H](CO)[C@H](O)[C@H](O)[C@H]1O)[C@H](O)[C@H](O)CCCCCCCCCCCCCC [CRONY, reference compound]	1888.5	1717	2060

same assay, conditions: serum, hour 24

SMILES	IL-12 levels, average	IL-12 levels, test 1	IL-12 levels, test 2
CCCCCCCCCCCCCCCCCCCCCCCCCC(=O)N[C@@H](CC[C@H]1O[C@H](CO)[C@H](O)[C@H](O)[C@H]1O)[C@H](O)[C@H](O)CCCCCCCCCCCCCC [CRONY, reference compound]	210	338	82

same assay, conditions: serum, hour 48

SMILES	IL-12 levels, average	IL-12 levels, test 1	IL-12 levels, test 2
CCCCCCCCCCCCCCCCCCCCCCCCCC(=O)N[C@@H](CC[C@H]1O[C@H](CO)[C@H](O)[C@H](O)[C@H]1O)[C@H](O)[C@H](O)CCCCCCCCCCCCCC [CRONY, reference compound]	238	328	148

same assay, conditions: serum, hour 72

SMILES	IL-12 levels, average	IL-12 levels, test 1	IL-12 levels, test 2
CCCCCCCCCCCCCCCCCCCCCCCCCC(=O)N[C@@H](CC[C@H]1O[C@H](CO)[C@H](O)[C@H](O)[C@H]1O)[C@H](O)[C@H](O)CCCCCCCCCCCCCC [CRONY, reference compound]	91.5	9	174

same assay, conditions: serum, total over hours 0-72

SMILES	IL-12 levels, Total
CCCCCCCCCCCCCCCCCCCCCCCCCC(=O)N[C@@H](CC[C@H]1O[C@H](CO)[C@H](O)[C@H](O)[C@H]1O)[C@H](O)[C@H](O)CCCCCCCCCCCCCC [CRONY, reference compound]	4025

system: melanoma metastases; assay: not given; details: in vivo administration; cited from earlier work

SMILES	improved activity against melanoma metastases (as compared to α-GalCer)
CCCCCCCCCCCCCCCCCCCCCCCCCC(=O)N[C@@H](CC[C@H]1O[C@H](CO)[C@H](O)[C@H](O)[C@H]1O)[C@H](O)[C@H](O)CCCCCCCCCCCCCC [CRONY, reference compound]	100 fold

system: rodent malaria parasites, P. yoeli and P. berghei; assay: not given; details: in vivo administration; cited from earlier work

SMILES	improved activity against malaria (as compared to α-GalCer)
CCCCCCCCCCCCCCCCCCCCCCCCCC(=O)N[C@@H](CC[C@H]1O[C@H](CO)[C@H](O)[C@H](O)[C@H]1O)[C@H](O)[C@H](O)CCCCCCCCCCCCCC [CRONY, reference compound]	1000 fold
